The values that follow come from patent US9993436B2, “Porous hollow fiber anti-solvent crystallization-based continuous method of polymer coating on submicron and nanoparticles” (New Jersey Institute of Technology, priority 2014, dated 2018).

Molecules are shown by their SMILES. Converted amounts (≈) assume the structure as drawn.

The nature of data set [1]: Dissolution test, USP II paddle method, UV at 296 nm. The format is physicochemical. As to conditions: up to 50 minutes; 0.27% SDS solution 900 mL, 37° C., paddle 50 rpm; FIG. 8. How it is done:
Dissolution tests for the uncoated and coated Griseofulvin particles were determined via a Distek dissolution tester (North Brunswick, N.J.). According to the USP II paddle method, 0.27% of SDS solution with 900 mL volume was added into the vessel as a buffer solution. Temperature of the medium was maintained at 37° C. and a paddle stirring speed of 50 rpm was used. The sample used was equivalent to a dose of 35 mg of GF, and dropped into a dissolution vessel containing the buffer solution. Samples having a volume of 6 mL were taken out at 1, 3, 5, 10, 20, 30, 40, 50 and 80 min and immediately analyzed by UV spectroscopy (52100UV+, Cole-Parmer, Vernon Hills, Ill.) at a wavelength of 296 nm. As a blank benchmark for the test, a 0.27% SDS buffer solution was measured first.
To illustrate the advantages of a coated drug for controlled release, dissolution tests were performed on three samples: as-received drug, uncoated drug, and polymer-coated drug.

A short description of data set [2]: Particle size distribution by laser diffraction particle size analyzer. The format is physicochemical. On the procedure: A laser diffraction particle size analyzer (LS230, Beckman Coulter, Brea, Calif.) was used to identify the extent of particle agglomeration. An aqueous micron-size suspension of the particle sample was prepared after 30 s of sonication to break the soft bonding between particles. After that a few drops of the suspension were introduced in the inlet of the instrument for analysis.
Residence time plays an important role in the PHFAC process since precipitation of both the polymer and the drug can be affected by the variation of residence time in the shell side of the module. Residence time can be simply altered by changing the shell-side feed solution flow rate. To identify the influence of the feed solution flow rate on the particle size distribution (PSD) of GF crystals, the solution containing the dissolved drug without any polymer was passed through the PHFAC module at different rates. The particle size distribution will be affected by the extent of supersaturation created and the rate at which supersaturation is created. Both are influenced by the rate at which the anti-solvent is introduced from the tube side to the shell side for a given feed solution flow rate.
Since one of the objectives of the study is to understand the impact of this novel PHFAC coating technique on the synthesized drug particles, the as-received uncoated GF particles and the Eudragit-coated GF particles obtained from the PHFAC were selected for particle size distribution analysis. A suspension of the samples in water was carefully dropped into the inlet of the laser diffraction particle size analyzer. The median size of the uncoated GF sample (11.6 μm) was close to the manufacturer's specification (10 μm). After polymer coating, the median size of the coated drug particles increased to 19.2 μm. One reason for the median size increase is obviously due to the coating which increases the particle size. Another reason is that the coating of GF by the polymer brings in a certain amount of agglomeration. Attachment of neighboring coated drug particles will take place due to the sticking tendency of the polymer-formed liquid bridges.
A laser diffraction particle size analyzer (LS 230, Beckman Coulter, Brea, Calif.) was used to determine the particle size distribution. An aqueous particle suspension of the particle sample was prepared by introducing the dry sample powder into DI water and sonicating it for about 30 seconds to break the soft bonding.

The conditions of data set [3]: cited from earlier work.
A short description of the next data set: physchem. From the text: Eudragit RL 100 (Mw, 150,000; a copolymer of methyl methacrylate, ethyl acrylate and methacrylic acid ester) from Evonik-Degussa (Parsippany, N.J.) was employed as the coating polymer. Drug particles of Griseofulvin (GF) from Letco (Decatur, Ala.) were used without further treatment. […] Sodium dodecyl sulfate (SDS) was used as a surfactant (Sigma-Aldrich). Deionized water was used as the tube side anti-solvent liquid. The Nylon 6 hollow fibers were obtained from ENKA America Inc. (Asheville, N.C.).

Where [4] appears, read: drug crystals from PHFAC module without any polymer in the feed solution, various shell/tube side flow rates.

As for `COC1=CC(=O)C[C@@H](C)[C@]12Oc1c(Cl)c(OC)cc(OC)c1C2=O` [uncoated GF, Griseofulvin], in data set [1], the “dissolution profile (comparison of curves)” value is given as “essentially similar dissolution curves”.

In data set [2] (setting [4]), `COC1=CC(=O)C[C@@H](C)[C@]12Oc1c(Cl)c(OC)cc(OC)c1C2=O` [X2, Griseofulvin] registered a Median size of 11.83 μm, a d10 of 2.117 μm and a d90 of 30.30 μm.

Consider `COC1=CC(=O)C[C@@H](C)[C@]12Oc1c(Cl)c(OC)cc(OC)c1C2=O` [X1, Griseofulvin], for which, in data set [2] (setting [4]), the Median size is reported as 7.333 μm, the d10 is listed as 4.977 μm and the d90 is 15.29 μm.

In data set [2] (setting [4]), `COC1=CC(=O)C[C@@H](C)[C@]12Oc1c(Cl)c(OC)cc(OC)c1C2=O` [X3, Griseofulvin] returned a Median size of 11.76 μm, a d10 of 2.939 μm and a d90 of 26.62 μm.

In the case of `COC1=CC(=O)C[C@@H](C)[C@]12Oc1c(Cl)c(OC)cc(OC)c1C2=O` [X0, Griseofulvin], in data set [2] (setting [4]), the Median size is on record as 1.617 μm, the d10 was 1.001 μm and the d90 is listed as 2.219 μm.

For the molecule `COC1=CC(=O)C[C@@H](C)[C@]12Oc1c(Cl)c(OC)cc(OC)c1C2=O` [GF, Griseofulvin], in data set [2] (suspension in water, FIG. 4), the Median size worked out at 11.6 μm. For the same molecule, the “median size, manufacturer's specification” value in data set [3] is 10 μm. In “physchem”, the solubility in water entry is “practically insoluble”. Moreover, in the data set “physchem” (organic solvent or mixture), the solubility was 116 mM (≈ 40.9 mg/mL).
